These results are taken from US7199097B1, “Peptide fragments having cell death inhibitory activity” (Juridical Foundation The Chemo-Sero-Therapeutic Research …, priority 1998, dated 2007).

Non-standard residues stand in square brackets, D forms with d. Sec = N[C@@H](C[SeH])C(=O)O

What all share (format): cell-based, human
The test system of data set [1] is Dami cells. The experiment in a line: Comparison with other antioxidants: cell death in serum free culture of Dami cells in the presence of HSA. As for the experimental part:
It was estimated to what extent vitamin E, known as being useful as an antioxidant to lipid oxidation, and catalase, acting for removal of hydrogen peroxide, could inhibit cell death induced in the assay system of the present invention while serum free culture in the presence of HSA.
(§1) To 1 ml Dami cells (1×10^6 cells/dish/3 ml), which can be subcultured in serum free medium SFO3 (manufactured by Sanko Jun-yaku K. K.) containing 0.05 μM 2ME and 0.1% BSA, was added 0.2 ml 1:2:2 mixed medium (SA medium) of RPMI 1640/D-MEM/F-12. The cells were cultured for three days and recovered for assay. The cells were washed twice with 50% PBS/SA/0.03% HSA (manufactured by SIGMA) and suspended in the same medium at 3×10^4 cells/ml. The cell suspension was added to a 96-well plate in each 190 μl for wells for sample addition or in each 100 μl for wells for serial dilution.
To the wells for sample addition was added each 10 μl of assay sample, i.e. 20 μM vitamin E, catalase or the selenoprotein P fragment and, after stirring, a serial dilution was made with the wells containing 100 μl cell suspension. The plate was incubated at 37° C. in CO2 incubator for 4 to 5 days followed by estimation. For estimation, a sample concentration necessary for cell death inhibition was compared to each other on Day 4 and thereafter. […] The selenoprotein P fragment could inhibit cell death up to 60 pM. From the fact that vitamin E did inhibit cell death in the assay system of the present invention, it was estimated that peroxidization of fatty acids bound to HSA (SIGMA) might be responsible for cell death induction. Moreover, it was expected that the selenoprotein P fragment, which inhibited cell death more effectively than vitamin E, would also act much more efficiently to events to which vitamin E was know to be effective.

Data set [2] deals with Dami cells. The experiment in a line: Cell death induced by fatty acid in serum free culture of Dami cells. The note with it: for induction of cell death: 10 μM, serum free culture in the absence of selenoprotein P; for effective concentration inhibiting cell death: in the presence of 4 μM linoleic acid. As for the experimental part:
as §1, with “2” for “0.2”, “SA/0.05% fatty acid free BSA” for “50% PBS/SA/0.03% HSA”, “Wako Jun-yaku K. K.)” for “SIGMA)”, “suspended at 3×10^4 cells/ml” for “suspended”, “containing 2 to 16 μM arachidonic acid, linoleic acid or linolenic acid.” for “at 3×10^4 cells/ml.”, “198” for “190”
To the wells for sample addition was added each 2 μl of 100 μM assay sample and, after stirring, a serial dilution was made with the wells containing 100 μl cell suspension. The plate was incubated at 37° C. in CO2 incubator for 4 to 5 days.

Data set [3] concerns Dami cells. Description: Cell death-inhibitory activity in Dami cells, serum free culture with HSA, serial dilution.
Source text: For screening factors having the cell death-inhibitory activity, a culture system needs to be established where cell death is induced. […] A diluted sample of active fractions may be added to this culture system to thereby estimate the cell death-inhibitory activity.
Based on the assay system as described above, the present inventors have aimed at components within the living body, especially those derived from blood, and thoroughly investigated for searching the activity of interest. […] For the purpose of quantification of the cell death-inhibitory activity as used herein, dilution of not more than 100-folds is indicated as “0” while in case of dilution of more than 100-folds, a figure of said dilution per se is used for indicating the activity.
as §1, with “(described in Greenberg S. M. et al., Blood, vol. 72, p. 1968–1977 (1988); 1×10^6” for “(1×10^6”, “2” for “0.2”, “200” for “190”, “dilution. To the wells for sample addition was added 2 μl assay sample and, after stirring, a serial dilution was made with the wells containing 100 μl cell suspension. The plate was incubated at 37° C. in CO2 incubator for 4 to 5 days followed by estimation.” for “dilution.”

Consider catalase, for which the “cell death-inhibitory activity (in words)” value in data set [1] (serial dilution from 20 μM sample) is “no cell death-inhibitory activity”. Regarding `CCCCC/C=C\C/C=C\CCCCCCCC(=O)O` [linoleic acid], in data set [2], the “induction of cell death” value was “induced cell death”. With `CCCCC/C=C\C/C=C\C/C=C\C/C=C\CCCCCC(=O)O` [adrenic acid], in data set [2], the “induction of cell death” value was “induced cell death”. As to eicosadienoic acid, in data set [2], the “induction of cell death” value is “induced cell death”.

Regarding vitamin E, the “inhibition of cell death at 60 nM” value in data set [1] (60 nM) is recorded as “could not”. Moreover, the “sample concentration up to which cell death is inhibited” value in data set [1] (Day 4 and thereafter, serial dilution) was found to be 125 nM. Further, the “effective concentration inhibiting cell death” value in data set [2] is recorded as “about 100 nM”. For the molecule docosatrienoic acid, the “induction of cell death” value in data set [2] was “induced cell death”. On the same count and under the same terms, the same measure for docosadienoic acid: “induced cell death”. For superoxide dismutase, the “cell death-inhibitory activity (in words)” value in data set [3] (each 70 μM of the samples) is listed as “some activity”. The “cell death-inhibitory activity relative to the peptide fragment of the present invention” value was “about 1/100” in data set [3] (each 70 μM of the samples) and 1/100 in data set [3] (each 70 μM of the samples, listed as SOD). Regarding `CCCCC/C=C\C/C=C\C/C=C\CCCCCCC(=O)O` [dihomo-γ-linolenic acid], the “induction of cell death” value in data set [2] is on record as “induced cell death”. Same read-out and setting: then `CCCCC/C=C\C/C=C\C/C=C\C/C=C\CCCC(=O)O` [arachidonic acid], with “induced cell death”.

B1: Full-length selenoprotein P: full-length selenoprotein P prepared from plasma with the antibody affinity column (protein)
chain: ESQDQSSLCKQPPAWSIRDQDPMLNSNGSVTVVALLQAS[Sec]YLCIIEASKLEDLRVKLKKEGYSNISYIVVNHQGISSRLKYTHLKNKVSEHIPVYQQEENQTDVWTLLNGSKDDFLIYDRCGRLVYHLGLPFSFLTFPYVEEAIKIAYCEKKCGNCSLTTLKDEDFCKRVSLATVDKTVETPSPHYHHEHHHNHGHQHLGSSELSENQQPGAPNAPTHPAPPGLHHHHKHKGQHRQGHPENRDMPASEDLQDLQKKLCRKRCINQLLCKLPTDSELAPRS[Sec]CCHCRHLIFEKTGSAIT[Sec]QCKENLPSLCS[Sec]QGLRAEENITESCQ[Sec]RLPPAA[Sec]QISQQLIPTEASAS[Sec]R[Sec]KNQAKK[Sec]E[Sec]PSN
modifications: ends and bridges not checked
Turning to B1, the Specific activity in data set [3] (Table 3, activity per protein) is less than 2500. For the same molecule, the Activity in data set [3] (Table 3, fold dilution up to which cells survive) is given as less than 100. The “cell death-inhibitory activity per proteins compared with the fragment” value in data set [3] (purified with anti-selenoprotein P antibody column) is recorded as “much lower”. The “effective concentration inhibiting cell death” value in data set [2] was “about 100 nM”.
